Calls of active or inactive are those of the source. How the calls were made is not given here.
test system: not listed separately; assay: GFP reporter counter screen, PhoP regulon inhibitors, Salmonella typhi, fluorescence inhibition (AID 2840); conditions: Salmonella typhi GFP reporter counter-screen, fluorescence, 4 h; at 150 µM (top of the series)

| SMILES | inhibition |
| --- | --- |
| COc1ccc(NC(=S)NCc2ccc(Cl)cc2)cc1 | 8.1% (inactive) |
| O=C(Nc1ccccc1Cl)N1CCCN(Cc2ccccc2F)C1 | 0.77% (inactive) |
| COc1cccc(NC(=S)NCc2ccc(Cl)cc2)c1 | 2.87% (inactive) |
| S=C(NCc1ccc(Cl)cc1)Nc1cccc(Cl)c1 | 21.5% (inactive) |
| CCn1cc(C(=O)O)c(=O)c2cc(F)c(N3CCN(C(=S)Nc4ccccc4Cl)CC3)cc21 | 17.6% (inactive) |
| COc1cccc(C2Sc3ccccc3NC3=C2C(=O)c2ccccc23)c1 (stereo unspecified) | 14.1% (inactive) |
| Cc1ccc(NC(=S)NCc2ccc(Cl)cc2)cc1 | 1.23% (inactive) |
| Cc1cccc(NC(=S)NCc2ccc(Cl)cc2)c1 | 3.06% (inactive) |
| O=C1C2=C(Nc3ccccc3SC2c2ccc(I)cc2)c2ccccc21 (stereo unspecified) | 37.4% (inactive) |
| S=C(NCc1ccccc1Cl)Nc1ccncc1 | 6.49% (inactive) |
| COc1ccc(CNC(=S)Nc2ccncc2)cc1 | 15.2% (inactive) |
| S=C(NCc1ccc(Cl)cc1)Nc1cccnc1 | -15.5% (inactive) |
| CCOc1ccc(NC(=S)N2CCN(c3cc4c(cc3F)c(=O)c(C(=O)O)cn4CC)CC2)cc1 | 15.7% (inactive) |
| O=C1C2=C(Nc3ccccc3SC2c2cccc(Cl)c2)c2ccccc21 (stereo unspecified) | 14.9% (inactive) |
| CCn1cc(C(=O)O)c(=O)c2cc(F)c(N3CCN(C(=S)Nc4ccc(Cl)cc4)CC3)cc21 | 39.1% (inactive) |
| S=C(NCc1ccc(Cl)cc1)Nc1ccc(Br)cc1 | 1.55% (inactive) |
| O=C1C2=C(Nc3ccccc3SC2c2ccccc2Br)c2ccccc21 (stereo unspecified) | 9.22% (inactive) |
| CCn1cc(C(=O)O)c(=O)c2cc(F)c(N3CCN(C(=S)Nc4ccccc4C)CC3)cc21 | 22% (inactive) |
| O=C1C2=C(Nc3ccccc3SC2c2ccccc2Cl)c2ccccc21 (stereo unspecified) | 24.5% (inactive) |
| Fc1ccccc1NC(=S)NCc1ccc(Cl)cc1 | 1.61% (inactive) |
| O=C1C2=C(Nc3ccccc3SC2c2ccsc2)c2ccccc21 (stereo unspecified) | 13.1% (inactive) |
| O=C1C2=C(Nc3ccccc3SC2c2ccccc2C(F)(F)F)c2ccccc21 (stereo unspecified) | 7.85% (inactive) |
| O=C(Nc1ccccc1)N1CCCN(Cc2ccccc2F)C1 | 14.4% (inactive) |
| CCn1cc(C(=O)O)c(=O)c2cc(F)c(N3CCN(C(=S)NCc4ccccc4)CC3)cc21 | 13.2% (inactive) |
| COc1ccccc1NC(=O)N1CCCN(Cc2ccccc2F)C1 | 21% (inactive) |
| CCn1cc(C(=O)O)c(=O)c2cc(F)c(N3CCN(C(=S)NC)CC3)cc21 | -11.9% (inactive) |
| O=C(NCc1ccccc1)N1CCCN(Cc2ccccc2F)C1 | -5% (inactive) |
| S=C(NCc1ccc(Cl)cc1)Nc1ccc(Cl)cc1 | 0.06% (inactive) |

test system: Salmonella typhi GFP reporter counter-screen, fluorescence, 4 h; assay: as above; conditions: not given

| SMILES | IC50 [nM] |
| --- | --- |
| CCn1cc(C(=O)O)c(=O)c2cc(F)c(N3CCN(C(=S)NC(=O)c4ccccc4Cl)CC3)cc21 | < 150 |
| CCCCn1c(NS(=O)(=O)c2ccc(C)cc2)c(S(=O)(=O)c2ccccc2)c2nc3ccccc3nc21 | < 150 |
| C1=C(CCNc2ncnc3c2[nH]c2ccccc23)CCCC1 | < 150 |
| CN(C)CCCN(C(=O)CCc1ccccc1)c1nc2ccc(Cl)cc2s1 | < 150 |
| S=C(NCc1ccc(Cl)cc1)Nc1ccncc1 | < 150 |
| O=C(O)c1cn(-c2ccc(F)cc2)c2cc(Cl)c(F)cc2c1=O | < 150 |
| Cc1ccc(CN2CCCN(C(=O)Nc3ccc(Cl)cc3)C2)cc1 | 99800 |
| O=C(Nc1cccnc1)c1cc(Br)c(Br)s1 | < 150 |
| CN1CCc2nc(SCC(=O)Nc3cccc(F)c3)c(C#N)c(-c3cccs3)c2C1 | < 150 |
| O=C1c2ccccc2C2=Nc3ccccc3SC(c3ccccc3F)C12 (stereo unspecified) | < 150 |
| CCCCn1c(NS(=O)(=O)c2ccccc2)c(S(=O)(=O)c2ccc(C)cc2)c2nc3ccccc3nc21 | < 150 |
| O=C1C2=C(Nc3ccccc3SC2c2ccc(C(F)(F)F)cc2)c2ccccc21 (stereo unspecified) | 107000 |
| O=c1c2ccccc2[nH]c2ccc(F)cc12 | < 150 |
| CCn1cc(C(=O)O)c(=O)c2cc(F)c(N3CCN(C(=S)NC(=O)c4ccccc4F)CC3)cc21 | < 150 |
| O=C(Nc1nnc(-c2cccs2)o1)c1cccc(C(F)(F)F)c1 | < 150 |
| Cc1ccc(Nc2cc(C)c3c(O)cccc3n2)cc1C | < 150 |
| O=[N+]([O-])c1ccc(CNC2CCCc3ccccc32)cc1 (stereo unspecified) | < 150 |
| COc1ccccc1Nc1nc(NCc2ccco2)c2ccccc2n1 | < 150 |
| O=C1C2=C(Nc3ccccc3SC2c2ccco2)c2ccccc21 (stereo unspecified) | < 150 |
| CCCCCNC(=O)c1cn(CC)c2cc(N3CCN(C)CC3)c(F)cc2c1=O | < 150 |
| CCn1cc(C(=O)O)c(=O)c2cc(F)c(N3CCN(C(=S)Nc4ccccc4C(F)(F)F)CC3)cc21 | 104000 |
| COc1ccc(NC(=O)c2cc(Br)c(Br)s2)cn1 | < 150 |
| O=S(=O)(Nc1c(S(=O)(=O)c2ccccc2)c2nc3ccccc3nc2n1C1CCCCC1)c1ccccc1 | < 150 |
| COc1c(N2CCN(C(=S)NCc3ccccc3)C(C)C2)c(F)cc2c(=O)c(C(=O)O)cn(C3CC3)c12 (stereo unspecified) | < 150 |
| O=C(Nc1ccc(Cl)cc1)N1CCCN(Cc2ccccc2F)C1 | < 150 |
| CN1CCN(C2=Cc3cc(Cl)ccc3Sc3cc(F)ccc32)CC1 | < 150 |
| CSc1nc2cc(Oc3cccc(Cl)c3Cl)c(Cl)cc2[nH]1 | < 150 |
| N#C/C(=C\c1ccc[nH]1)C(=O)NC1CC1 | < 150 |
